In ChEMBL document CHEMBL5291721, “A preclinical secondary pharmacology resource illuminates target-adverse drug reaction associations of marketed drugs” (Nat Commun, 2023):

Assays:
[1] = target: T1, Gastrin/cholecystokinin type B receptor (Homo sapiens, UniProt P32239)
T1 sequence (P32239 whole entry): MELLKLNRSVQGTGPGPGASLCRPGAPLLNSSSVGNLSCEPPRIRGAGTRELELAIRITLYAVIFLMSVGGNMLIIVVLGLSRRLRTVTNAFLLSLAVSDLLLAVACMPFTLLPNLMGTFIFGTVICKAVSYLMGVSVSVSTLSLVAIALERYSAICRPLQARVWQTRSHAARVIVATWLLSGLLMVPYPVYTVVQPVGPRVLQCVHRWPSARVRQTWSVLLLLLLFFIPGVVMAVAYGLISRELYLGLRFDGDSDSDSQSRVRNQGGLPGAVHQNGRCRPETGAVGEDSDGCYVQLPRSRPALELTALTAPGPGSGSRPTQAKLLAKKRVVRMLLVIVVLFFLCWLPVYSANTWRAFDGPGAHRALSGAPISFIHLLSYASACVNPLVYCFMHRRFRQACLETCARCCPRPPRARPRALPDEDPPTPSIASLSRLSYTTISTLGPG

[2] = target: T2, B2 bradykinin receptor (Homo sapiens, UniProt P30411)
T2 sequence (P30411 whole entry): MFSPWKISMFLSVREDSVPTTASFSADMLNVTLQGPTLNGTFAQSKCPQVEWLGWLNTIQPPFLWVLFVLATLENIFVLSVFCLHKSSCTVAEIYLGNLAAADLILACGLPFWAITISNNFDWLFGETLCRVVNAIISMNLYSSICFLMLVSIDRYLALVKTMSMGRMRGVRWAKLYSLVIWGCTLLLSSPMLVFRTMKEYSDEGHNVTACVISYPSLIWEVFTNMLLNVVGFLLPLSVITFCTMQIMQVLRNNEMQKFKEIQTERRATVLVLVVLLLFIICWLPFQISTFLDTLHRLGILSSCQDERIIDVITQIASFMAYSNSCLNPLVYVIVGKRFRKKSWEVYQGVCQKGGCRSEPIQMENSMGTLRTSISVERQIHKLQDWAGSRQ

[3] = target: T3, Androgen receptor (Rattus norvegicus, UniProt P15207); assay type: functional
T3 sequence (P15207 whole entry): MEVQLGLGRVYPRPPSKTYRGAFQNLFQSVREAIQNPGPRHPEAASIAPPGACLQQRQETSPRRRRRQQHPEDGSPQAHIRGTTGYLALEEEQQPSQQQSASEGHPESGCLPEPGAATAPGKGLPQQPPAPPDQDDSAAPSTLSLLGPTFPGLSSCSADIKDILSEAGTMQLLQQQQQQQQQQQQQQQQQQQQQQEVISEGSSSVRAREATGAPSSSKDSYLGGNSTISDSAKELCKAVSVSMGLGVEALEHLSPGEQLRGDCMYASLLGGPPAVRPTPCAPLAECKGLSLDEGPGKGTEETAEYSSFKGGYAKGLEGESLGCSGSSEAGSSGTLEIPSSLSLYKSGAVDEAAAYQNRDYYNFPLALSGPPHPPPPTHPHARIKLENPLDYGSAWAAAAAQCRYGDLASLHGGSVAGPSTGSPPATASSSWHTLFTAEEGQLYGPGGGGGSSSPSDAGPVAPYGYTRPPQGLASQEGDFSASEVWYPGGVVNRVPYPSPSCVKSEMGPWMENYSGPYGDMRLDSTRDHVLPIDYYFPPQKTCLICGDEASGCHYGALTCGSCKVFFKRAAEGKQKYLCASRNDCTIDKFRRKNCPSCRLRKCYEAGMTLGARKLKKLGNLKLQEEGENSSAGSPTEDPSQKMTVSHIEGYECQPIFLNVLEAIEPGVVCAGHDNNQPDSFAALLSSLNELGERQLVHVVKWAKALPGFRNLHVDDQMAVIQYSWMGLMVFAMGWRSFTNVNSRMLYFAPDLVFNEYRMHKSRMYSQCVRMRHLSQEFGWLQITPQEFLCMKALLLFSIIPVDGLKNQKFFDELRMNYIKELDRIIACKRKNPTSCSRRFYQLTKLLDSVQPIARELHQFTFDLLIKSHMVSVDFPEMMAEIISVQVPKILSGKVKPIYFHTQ

[4] = target: Kappa-type opioid receptor (Homo sapiens, UniProt P41145)
Kappa-type opioid receptor, sequence (P41145 whole entry): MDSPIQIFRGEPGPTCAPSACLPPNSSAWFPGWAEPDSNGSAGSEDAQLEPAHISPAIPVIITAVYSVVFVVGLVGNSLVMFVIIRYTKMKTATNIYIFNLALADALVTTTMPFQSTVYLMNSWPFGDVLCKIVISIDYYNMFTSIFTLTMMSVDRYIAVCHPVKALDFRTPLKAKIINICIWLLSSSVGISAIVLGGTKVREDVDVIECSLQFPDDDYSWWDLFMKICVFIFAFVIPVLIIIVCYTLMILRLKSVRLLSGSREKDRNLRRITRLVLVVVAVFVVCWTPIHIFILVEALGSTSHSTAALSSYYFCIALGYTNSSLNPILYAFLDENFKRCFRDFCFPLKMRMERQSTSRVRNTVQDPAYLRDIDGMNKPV

[5] = target: T4, Muscarinic acetylcholine receptor M2 (Homo sapiens, UniProt P08172); assay type: functional, cell-based
T4 sequence (P08172 whole entry): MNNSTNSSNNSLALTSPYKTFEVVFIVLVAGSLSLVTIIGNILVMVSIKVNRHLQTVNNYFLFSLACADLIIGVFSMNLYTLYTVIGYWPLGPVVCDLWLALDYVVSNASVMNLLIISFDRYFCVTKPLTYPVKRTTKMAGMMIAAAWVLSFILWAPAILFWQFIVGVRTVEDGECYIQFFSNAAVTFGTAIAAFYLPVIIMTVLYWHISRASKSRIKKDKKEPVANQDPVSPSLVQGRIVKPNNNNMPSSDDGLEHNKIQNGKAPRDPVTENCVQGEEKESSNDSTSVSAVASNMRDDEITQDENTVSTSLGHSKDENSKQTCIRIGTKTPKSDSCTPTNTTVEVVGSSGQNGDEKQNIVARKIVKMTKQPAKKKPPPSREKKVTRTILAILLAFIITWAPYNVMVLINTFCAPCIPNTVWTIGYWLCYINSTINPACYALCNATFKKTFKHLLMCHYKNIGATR

[6] = target: T5, Cannabinoid receptor 1 (Homo sapiens, UniProt P21554)
T5 sequence (P21554 whole entry): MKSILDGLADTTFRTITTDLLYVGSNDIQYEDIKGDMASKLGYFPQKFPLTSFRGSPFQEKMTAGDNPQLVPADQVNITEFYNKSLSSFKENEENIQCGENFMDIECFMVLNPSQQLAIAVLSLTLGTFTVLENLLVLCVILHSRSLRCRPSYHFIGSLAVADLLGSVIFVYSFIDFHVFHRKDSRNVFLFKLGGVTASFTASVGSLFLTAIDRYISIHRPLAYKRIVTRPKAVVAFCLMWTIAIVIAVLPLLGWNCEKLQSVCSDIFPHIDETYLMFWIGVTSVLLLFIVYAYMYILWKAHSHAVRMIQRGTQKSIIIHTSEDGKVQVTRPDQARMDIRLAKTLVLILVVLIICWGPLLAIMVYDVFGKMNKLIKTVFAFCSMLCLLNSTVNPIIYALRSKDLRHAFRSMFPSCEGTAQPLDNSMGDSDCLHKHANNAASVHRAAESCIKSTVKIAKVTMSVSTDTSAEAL

[7] = target: T6, Cholecystokinin receptor type A (Homo sapiens, UniProt P32238)
T6 sequence (P32238 whole entry): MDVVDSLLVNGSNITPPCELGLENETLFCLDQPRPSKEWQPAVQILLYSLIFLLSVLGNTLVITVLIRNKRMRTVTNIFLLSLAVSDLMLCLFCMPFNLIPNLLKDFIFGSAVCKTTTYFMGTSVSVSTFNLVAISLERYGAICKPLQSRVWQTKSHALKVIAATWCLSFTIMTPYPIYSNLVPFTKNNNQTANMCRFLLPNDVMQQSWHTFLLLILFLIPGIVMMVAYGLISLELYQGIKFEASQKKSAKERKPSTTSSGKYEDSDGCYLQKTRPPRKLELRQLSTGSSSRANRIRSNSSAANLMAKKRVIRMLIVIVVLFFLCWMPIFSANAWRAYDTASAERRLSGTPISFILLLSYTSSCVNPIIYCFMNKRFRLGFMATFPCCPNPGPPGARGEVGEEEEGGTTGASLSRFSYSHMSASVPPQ

[8] = target: Adenosine receptor A2a (Homo sapiens, UniProt P29274)
Adenosine receptor A2a, sequence (P29274 whole entry): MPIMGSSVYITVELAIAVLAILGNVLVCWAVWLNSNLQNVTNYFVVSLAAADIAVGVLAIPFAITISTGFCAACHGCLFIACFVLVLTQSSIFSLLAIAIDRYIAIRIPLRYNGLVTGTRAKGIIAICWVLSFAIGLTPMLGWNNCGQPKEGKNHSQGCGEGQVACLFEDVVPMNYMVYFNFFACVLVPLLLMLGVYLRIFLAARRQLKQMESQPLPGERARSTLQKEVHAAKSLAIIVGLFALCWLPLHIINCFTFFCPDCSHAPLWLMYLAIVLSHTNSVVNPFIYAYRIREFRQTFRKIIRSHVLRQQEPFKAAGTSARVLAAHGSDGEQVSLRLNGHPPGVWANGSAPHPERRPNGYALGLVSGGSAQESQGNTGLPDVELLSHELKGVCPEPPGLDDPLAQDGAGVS

[9] = target: T5, Cannabinoid receptor 1; assay type: functional, cell-based
[10] = target: Beta-2 adrenergic receptor (Homo sapiens, UniProt P07550); assay type: functional, cell-based
Beta-2 adrenergic receptor, sequence (P07550 whole entry): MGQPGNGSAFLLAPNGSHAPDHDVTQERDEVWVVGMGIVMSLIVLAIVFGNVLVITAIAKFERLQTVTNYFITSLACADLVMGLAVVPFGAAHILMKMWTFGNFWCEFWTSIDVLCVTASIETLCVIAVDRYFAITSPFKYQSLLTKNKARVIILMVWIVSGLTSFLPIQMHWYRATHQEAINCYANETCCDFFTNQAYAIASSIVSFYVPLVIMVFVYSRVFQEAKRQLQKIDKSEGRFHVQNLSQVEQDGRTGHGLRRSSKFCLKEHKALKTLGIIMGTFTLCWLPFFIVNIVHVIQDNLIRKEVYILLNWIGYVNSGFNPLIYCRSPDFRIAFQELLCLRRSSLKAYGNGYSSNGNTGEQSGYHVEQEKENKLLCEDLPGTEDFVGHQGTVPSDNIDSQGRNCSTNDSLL
Also: assay procedure not described here.

AC50 [1] [µM] | AC50 [2] [µM] | AC50 [3] [µM] | AC50 [4] [µM] | AC50 [5] [µM] | AC50 [6] [µM] | AC50 [7] [µM] | AC50 [8] [µM] | AC50 [9] [µM] | AC50 [10] [µM] | SMILES
> 30 | > 30 | > 30 | > 30 | > 30 | > 30 | > 30 | > 30 |  |  | COc1ccc(/C=C/C(=O)Nc2ccccc2C(=O)O)cc1OC
> 30 | > 30 | > 30 | > 30 | > 30 | > 10 | > 30 | > 30 | > 30 | > 30 | CCN(CC)C(=O)C1CN2CCc3cc(OC)c(OC)cc3C2CC1OC(C)=O (stereo not given) [BENZQUINAMIDE]
22.1 | > 30 | > 30 | 13.7 | > 30 | > 30 | > 30 | > 30 |  |  | COC(=O)N[C@@H](C)CNc1nccc(-c2cn(C(C)C)nc2-c2cc(Cl)cc(NS(C)(=O)=O)c2F)n1 [ENCORAFENIB]
> 30 | > 30 | > 30 | > 30 | > 30 |  | > 30 | > 30 | > 30 | > 30 | Nc1nc2c(c(=O)[nH]1)N(C=O)C(CNc1ccc(C(=O)N[C@@H](CCC(=O)O)C(=O)O)cc1)CN2 (stereo not given in full) [LEUCOVORIN]
> 30 | > 30 | > 30 | > 30 | > 30 |  | > 30 | > 30 | > 30 | > 30 | CCCC[C@H](C)C[C@H](O)/C=C/[C@H]1[C@H](O)CC(=O)[C@@H]1CCCC/C=C/C(=O)O [LIMAPROST]
> 10 | > 30 | > 30 | > 30 | > 30 |  | > 30 | > 30 | > 30 | > 30 | Cc1ccc(NC(=O)C2(c3ccc4c(c3)OC(F)(F)O4)CC2)nc1-c1cccc(C(=O)O)c1 [LUMACAFTOR]
> 30 | > 30 | > 30 | > 30 | > 30 |  | > 30 | > 30 | > 30 | > 30 | CCOC(=O)Nc1ccc2c(c1)N(C(=O)CCN1CCOCC1)c1ccccc1S2 [MORICIZINE]
> 30 | > 10 | 15 | > 30 | > 30 |  | > 30 | > 30 | > 30 | > 30 | Cc1ccc2c(-c3ccccc3)nc(=O)n(C(C)C)c2c1 [PROQUAZONE]

SMILES | AC50 [1] [µM] | AC50 [2] [µM] | AC50 [3] [µM] | AC50 [4] [µM] | AC50 [5] [µM] | AC50 [6] [µM] | AC50 [7] [µM] | AC50 [8] [µM] | AC50 [9] [µM] | AC50 [10] [µM]
CC(C)(C)NCC(O)c1cc(Cl)c(N)c(Cl)c1 (stereo not given) [CLENBUTEROL] | > 30 | > 30 | > 30 | 28 | > 30 | > 30 | > 30 | > 30 | > 30 | 
